We go through 3 compounds from publication PMC7179901, “The aerobic respiratory chain of Pseudomonas aeruginosa cultured in artificial urine media: Role of NQR and terminal oxidases” (PLoS ONE, 2020).

For one assay, the target named is T1, NQR (Pseudomonas aeruginosa, UniProt Q9HZK7+Q9HZK9).
T1 construct: gene nqrB; native NQR complex in LB and mAUM membranes; with six-subunit complex NqrA-F
Description: HQNO titration of NADH-dependent oxygen consumption in isolated membranes. The assay is classed as biochemical.

Assay [1] has as its target T2, purified P. aeruginosa NQR (Pa-NQR) (Pseudomonas aeruginosa, UniProt Q9HZL1).
T2 construct: gene nqrF; […]; DDM-solubilized, Ni-NTA (tag not described) and DEAE purified; six-subunit complex; with Na(+)-translocating NADH-quinone reductase subunit A; Na(+)-translocating NADH-quinone reductase subunit B; Na(+)-translocating NADH-quinone reductase subunit C; Na(+)-translocating NADH-quinone reductase subunit D; Na(+)-translocating NADH-quinone reductase subunit E
Description: ubiquinone reductase activity at […] nm. As to conditions: 50 μM ubiquinone-1, KHE buffer pH 7.5. The assay is classed as biochemical.

The Ki is the equilibrium dissociation constant of an inhibitor or competing ligand from its target.

T2 sequence (Q9HZL1 whole entry): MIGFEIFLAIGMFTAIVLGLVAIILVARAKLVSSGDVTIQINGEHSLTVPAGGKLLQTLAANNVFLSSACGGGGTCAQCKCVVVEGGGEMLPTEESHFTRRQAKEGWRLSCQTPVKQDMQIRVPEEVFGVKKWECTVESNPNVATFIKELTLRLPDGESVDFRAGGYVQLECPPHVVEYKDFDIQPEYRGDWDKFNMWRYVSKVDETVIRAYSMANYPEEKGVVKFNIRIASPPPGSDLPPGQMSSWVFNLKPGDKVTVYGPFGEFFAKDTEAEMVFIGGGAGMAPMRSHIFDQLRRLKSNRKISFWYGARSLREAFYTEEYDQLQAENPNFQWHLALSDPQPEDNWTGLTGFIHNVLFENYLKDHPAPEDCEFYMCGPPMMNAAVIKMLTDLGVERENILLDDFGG
T2 sequence (Q9HZK6 whole entry partner): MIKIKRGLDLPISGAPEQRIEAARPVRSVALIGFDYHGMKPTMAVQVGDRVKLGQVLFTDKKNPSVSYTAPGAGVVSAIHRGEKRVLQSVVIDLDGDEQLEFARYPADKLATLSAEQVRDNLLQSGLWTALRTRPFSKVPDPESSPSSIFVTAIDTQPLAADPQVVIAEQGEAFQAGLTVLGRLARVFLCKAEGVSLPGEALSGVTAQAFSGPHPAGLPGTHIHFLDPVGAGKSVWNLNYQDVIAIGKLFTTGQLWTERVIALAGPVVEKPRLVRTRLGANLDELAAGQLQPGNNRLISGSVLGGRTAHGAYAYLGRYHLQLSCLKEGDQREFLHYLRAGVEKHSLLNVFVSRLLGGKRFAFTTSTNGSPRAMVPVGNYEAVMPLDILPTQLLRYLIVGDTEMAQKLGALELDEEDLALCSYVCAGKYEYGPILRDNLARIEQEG
T2 sequence (Q9HZK7 whole entry partner): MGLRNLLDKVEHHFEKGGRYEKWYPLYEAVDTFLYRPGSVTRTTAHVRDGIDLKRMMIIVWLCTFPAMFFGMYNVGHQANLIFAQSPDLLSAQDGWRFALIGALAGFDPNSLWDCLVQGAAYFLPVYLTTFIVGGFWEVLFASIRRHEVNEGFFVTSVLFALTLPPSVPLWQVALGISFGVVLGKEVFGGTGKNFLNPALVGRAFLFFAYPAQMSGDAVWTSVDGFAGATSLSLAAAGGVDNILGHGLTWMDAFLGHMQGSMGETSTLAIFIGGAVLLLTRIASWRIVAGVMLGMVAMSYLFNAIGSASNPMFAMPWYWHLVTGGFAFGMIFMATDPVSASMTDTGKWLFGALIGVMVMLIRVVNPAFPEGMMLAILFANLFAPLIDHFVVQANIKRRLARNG
T2 sequence (Q9HZK8 whole entry partner): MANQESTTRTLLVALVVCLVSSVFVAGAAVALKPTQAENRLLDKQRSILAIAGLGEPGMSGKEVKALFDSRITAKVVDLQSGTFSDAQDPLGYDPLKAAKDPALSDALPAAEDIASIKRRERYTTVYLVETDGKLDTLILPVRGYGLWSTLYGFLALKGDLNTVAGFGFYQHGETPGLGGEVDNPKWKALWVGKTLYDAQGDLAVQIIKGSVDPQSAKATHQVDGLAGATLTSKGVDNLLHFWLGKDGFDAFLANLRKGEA
T2 sequence (Q9HZK9 whole entry partner): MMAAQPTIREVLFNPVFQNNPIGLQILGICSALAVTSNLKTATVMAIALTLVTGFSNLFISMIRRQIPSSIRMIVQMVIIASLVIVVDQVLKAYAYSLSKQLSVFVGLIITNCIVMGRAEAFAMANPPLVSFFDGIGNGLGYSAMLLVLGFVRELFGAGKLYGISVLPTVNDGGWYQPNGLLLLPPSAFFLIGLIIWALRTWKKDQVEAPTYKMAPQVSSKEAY
T2 sequence (Q9HZL0 whole entry partner): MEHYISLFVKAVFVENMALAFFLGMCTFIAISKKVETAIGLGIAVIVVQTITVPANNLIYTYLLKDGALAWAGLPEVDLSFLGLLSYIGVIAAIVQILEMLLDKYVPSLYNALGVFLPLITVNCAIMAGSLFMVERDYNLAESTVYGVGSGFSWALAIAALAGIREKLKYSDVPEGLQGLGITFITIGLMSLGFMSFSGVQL
T1 sequence (Q9HZK9 whole entry): as the sequence (Q9HZK9 whole entry partner) above
T1 sequence (Q9HZL1 whole entry, further chain): as the sequence (Q9HZL1 whole entry) above
T1 sequence (Q9HZK7 whole entry): as the sequence (Q9HZK7 whole entry partner) above
T1 sequence (Q9HZK6 whole entry, further chain): as the sequence (Q9HZK6 whole entry partner) above
T1 sequence (Q9HZL0 whole entry, further chain): as the sequence (Q9HZL0 whole entry partner) above
T1 sequence (Q9HZK8 whole entry, further chain): as the sequence (Q9HZK8 whole entry partner) above

In the case of `CCCCCCCc1cc(O)c2ccccc2[n+]1[O-]` [HQNO], the affinity on NQR, expressed as Ki, was 2000 nM.
For the compound `NC(=O)C1=CN([C@@H]2O[C@H](COP(=O)(O)OP(=O)(O)OC[C@H]3O[C@@H](n4cnc5c(N)ncnc54)[C@H](O)[C@@H]3O)[C@@H](O)[C@H]2O)C=CC1` [NADH], the “ubiquinone reductase activity at 282 nm” value in assay [1] (250 μM NADH) is on record as “purified P. aeruginosa NQR (F) using as substrates NADH (black) or deamino NADH”.
Take `NC(=O)C1=CN([C@@H]2O[C@H](COP(=O)(O)OP(=O)(O)OC[C@H]3O[C@@H](n4cnc5c(=O)[nH]cnc54)[C@H](O)[C@@H]3O)[C@@H](O)[C@H]2O)C=CC1` [deamino NADH]: the “ubiquinone reductase activity at 282 nm” value in assay [1] (250 μM deamino NADH) is listed as “purified P. aeruginosa NQR (F) using as substrates NADH (black) or deamino NADH”.
